Assay results taken from PMC7725506, “Functional Diversification of SRSF Protein Kinase to Control Ubiquitin-Dependent Neurodevelopmental Signaling” (Developmental Cell, 2020).

Assays:
[1] = tested on: Foxp1 exon 16-16b alternative splicing switch; assay: Foxp1 exon 16-16b incorporation in mESCs by quantitative RT-PCR; assay type: cell-based, mouse; conditions: 8 h
Description: SRSF phosphorylation, SRPK1, SRPK2, and ERK1/2 levels were determined by immunoblotting. Expected positions of SRSFs that are not detected are shown in gray. Quantification of SRSF phosphorylation (Right). Data represented as mean ± SEM (n = 4). […] Neuro 2a is a control for exon 16b exclusion in differentiated cells (Bottom). Data represented as mean ± SEM (n = 3). […] Exon 16 inclusion: (^∗∗∗∗) p < 0.0001, Exon 16b inclusion: (^∗) p = 0.0164, p = 0.0485, and p = 0.0489 (left to right). Ratio exon 16b/16: (^∗∗∗∗) p < 0.0001, (^∗∗∗) p = 0.0003. (C) SRPK substrates predicted using ScanProsite and grouped according to UniProt functions. (D) RNF12 phosphorylation sites detected by mass-spectrometry. LZL, leucine-zipper like; NLS, nuclear localization signal; NES, nuclear export signal; RING, RING E3 ubiquitin ligase catalytic domain. (E) CMGC family kinase copy numbers in mESCs determined by quantitative proteomics and represented using Kinoviewer. (F) CMGC kinase (200 mU) phosphorylation of the RNF12 SR-motif in vitro was determined by immunoblotting for RNF12 phospho-Ser214 and total RNF12. […] Normalized RNF12 Ser214 phosphorylation is shown below. Data represented as mean ± SEM (n = 3). […] RNF12 SR-motif phosphorylation was analyzed by immunoblotting for RNF12 phospho-Ser214 and RNF12. SRPK1 and SRPK2 levels are shown as a loading control, Related to Figure S1; Tables S1 and S2.
Total RNA extraction and reverse transcription was performed as described. Quantitative PCR reactions using SsoFast EvaGreen Supermix (Bio-Rad) were performed in a CFX384 real time PCR system (Bio-Rad). Relative RNA expression was calculated through the ΔΔCt method and normalised to Gapdh expression. Data was analysed in Excel (Microsoft) and statistical analysis performed in GraphPad Prism v7.0c software (GraphPad Software Inc.).

[2] = tested on: Ser-Arg rich splicing factors (SRSF); assay: SRSF phosphorylation in mESCs, immunoblotting with phosphoepitope SR proteins antibody; assay type: cell-based, mouse; conditions: 10 μM, 4 h
RNF12 phospho-Ser214 = assay: RNF12 SR-motif phosphorylation in mESCs, immunoblotting for RNF12 phospho-Ser214 and total RNF12; assay type: cell-based, mouse; conditions: 10 μM, 4 h
RNF12 SR-motif = RNF12 SR-motif phosphorylation in mESCs by phos-tag immunoblotting; assay type: cell-based, mouse; conditions: 10 μM, 4 h
From the text: RNF12 4xSA = S212A/S214A/S227A/S229A. (B) Rlim^−^/y mESCs were transfected with the indicated RNF12 constructs and lysates treated with λ-phosphatase and analyzed by phos-tag immunoblotting for RNF12. Unphosphorylated recombinant RNF12 is included as a control. […] RNF12 4xSA is included as an unphosphorylated control. […] (F) Phosphorylated peptides detected by mass spectrometry following in vitro phosphorylation of RNF12 by SRPK1. pS, phospho-serine. (G) Autoradiography of RNF12 WT or S212A/S214A/S227A/S229A (4xSA) following a radioactive kinase reaction with SRPK1, SRPK2, or SRPK3. RNF12 protein is detected by Coomassie staining. (H) Srpk1^+/+ and Srpk1^−/− mESCs were transfected with control or SRPK2 siRNA and RNF12 SR-motif phosphorylation analyzed by phos-tag immunoblotting for RNF12. SRPK2, SRPK1, RNF12, and ERK1/2 levels were determined by immunoblotting. Related to Figure S2; Tables S3 and S4.
All compounds were diluted in DMSO and mESCs treated with 10 μM inhibitor for 4 h prior lysis unless indicated otherwise. […] For proteasome inhibition mESCs were treated with 10 μM MG132 (Sigma Aldrich) for 6 h. All chemicals are listed in the Key Resource Table.
Phos-tag analyses were performed by loading protein samples containing 10 mM MnCl2 in 8% polyacrylamide gels containing 50 μM Phos-tag reagent (MRC-PPU reagents and services) and 0.1 mM MnCl2. After electrophoresis, gels were washed three times for 10 mins in Transfer buffer (48 mM Tris, 39 mM Glycine, 20% Methanol) supplemented with 20 mM EDTA. Proteins were then transferred to Nitrocellulose membranes, blocked and probed with the indicated antibodies. All protein signals were quantified using Image Studio (LI-COR Biosciences) or Image Lab software (Bio-Rad). Primary antibodies are listed in the Key Resource Table. […]
SR-motif phosphorylation of HA-immunoprecipitated RNF12 analysed by phos-tag immunoblotting.
HA-RNF12 levels are shown as a control. Fully phosphorylated (4-P) and unphosphorylated (0-P) RNF12 SR-motif is indicated by open (○) and closed (●) circles respectively.
Data are represented as mean ± S.D. (n=3). (C) RNF12 expressing mESCs were treated with 10 […]
immunoblotting. HA-RNF12 and ERK1/2 levels are shown as a control. (D) RNF12 expressing […]
5 h (+ wash-out). RNF12 phosphorylation was analysed via phos-tag immunoblotting. ERK1/2 levels are shown as a loading control. (E) Multiple Srpk1-/- and Srpk2-/- mESC clones were […]

SRPK1 = SRPK1 (Homo sapiens, UniProt Q96SB4); assay type: biochemical; conditions: read-out: IC50, inhibition of RNF12 phosphorylation by SRPK1
SRPK1, sequence (Q96SB4 whole entry): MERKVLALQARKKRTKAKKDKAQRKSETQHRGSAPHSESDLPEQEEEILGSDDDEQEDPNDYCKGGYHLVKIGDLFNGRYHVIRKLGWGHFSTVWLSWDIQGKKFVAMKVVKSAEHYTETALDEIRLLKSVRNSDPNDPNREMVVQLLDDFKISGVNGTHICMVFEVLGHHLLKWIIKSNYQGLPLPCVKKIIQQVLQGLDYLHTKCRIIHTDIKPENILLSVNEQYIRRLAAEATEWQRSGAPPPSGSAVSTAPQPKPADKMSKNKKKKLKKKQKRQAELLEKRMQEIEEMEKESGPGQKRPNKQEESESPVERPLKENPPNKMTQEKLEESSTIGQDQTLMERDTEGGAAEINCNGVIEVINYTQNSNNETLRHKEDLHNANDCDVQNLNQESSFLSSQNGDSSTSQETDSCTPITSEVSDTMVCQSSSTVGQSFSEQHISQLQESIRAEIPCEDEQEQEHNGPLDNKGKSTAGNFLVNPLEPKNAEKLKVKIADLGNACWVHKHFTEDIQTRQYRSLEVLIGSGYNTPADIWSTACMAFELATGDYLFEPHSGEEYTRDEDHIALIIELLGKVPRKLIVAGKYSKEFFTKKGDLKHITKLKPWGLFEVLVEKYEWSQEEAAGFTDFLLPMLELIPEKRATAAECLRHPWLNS
Description: Cells were lysed, and 1.5 mg of protein immunoprecipitated with 2 μg of SRPK1 or SRPK2 antibodies (BD Biosciences). Immunoprecipitates were then washed with lysis buffer supplemented with 500 mM NaCl and half of the sample was resuspended in loading buffer. The remainder was subjected to in vitro phosphorylation assay containing 0.5 μg RNF12 and 2 mM ATP in kinase buffer (50 mM Tris-HCl [pH 7.5], 0.1 mM EGTA, 10 mM MgCl2, 2 mM DTT) and incubated at 30°C for 30 min. […] For radioactive in vitro kinase assays, reactions were supplemented with 1 μCi γ-^32P ATP. Reactions were incubated at 30°C for 30 min in presence or absence of inhibitor as indicated and samples subjected to polyacrylamide electrophoresis and immunoblot or Coomassie blue staining and signal detected via ECL, infrared detection or autoradiography.
Supplemental Figure Legends
(Related to Figure 1). (A) Wild-type (WT) mESCs were analysed for protein copy number by absolute quantitative proteomics. […]
Data are represented as mean ± S.E.M. (n=3). […] ND = not detected. (B) Inhibition of RNF12 phosphorylation in vitro by SRPK1 and SRPK2 in the presence of varying concentrations of the indicated SRPK inhibitors was determined by immunoblotting for RNF12 phospho-Ser214 (Left). […] Immunoblots were quantified to generate SRPK inhibitor dose-response curves for inhibition of RNF12 phosphorylation by SRPK1 and SRPK2 in vitro (Right). […]

RNF12 4xSA-KI mESCs = assay: RNF12 localization by immunofluorescence in RNF12 4xSA-KI mESCs; assay type: cell-based, mouse; conditions: 30 nM, 6 h
Description: Figure 3 SRPK Phosphorylation of RNF12 Regulates Nuclear Anchoring and E3 Ubiquitin Ligase Activity (A) RNF12 localization in wild-type knockin (WT-KI), SR-motif phosphorylation site knockin (4xSA-KI), or SR-motif deletion (ΔSR-KI) mESCs was determined by immunofluorescence. Scalebar: 20 μm (Left). Quantification of the Nucleus/cytosol fluorescence intensity ratio (Right). Data represented as mean ± SEM. […] (^∗∗∗∗) p < 0.0001. (B) RNF12 4xSA-KI mESCs were treated with 30 nM leptomycin B for 6 h and RNF12 localization analyzed by immunofluorescence. Scale bar: 20 μm (Top). Quantification of the nucleus/cytosol fluorescence intensity ratio (Bottom). […] (^∗∗∗∗) p < 0.0001. (C) FLAG-tagged SRPK1 and SRPK2 were expressed in mESCs and localization of SRPKs and RNF12 analyzed by immunofluorescence. Scale bar: 20 μm (Left). Quantification of the cytosol/nucleus fluorescence intensity ratio (Right). […] (^∗∗∗∗) p < 0.0001. […] RNF12, REX1 and ERK1/2 were detected by immunoblotting. (^∗) indicates non-specific signal. (E) REX1 levels were analyzed in RNF12 WT-KI, 4xSA-KI, ΔSR-KI, and W576Y-KI mESCs by immunoprecipitation followed by immunoblotting. ERK1/2 levels were detected by immunoblotting. (F) REX1 half-life was determined in RNF12 WT-KI, 4xSA-KI, ΔSR-KI, and W576Y-KI mESCs by immunoblotting. (Top) quantification of HA-REX1 protein levels normalized to ERK1/2 and calculated protein half-life (Bottom). […]

SMILES | RNF12 phospho-Ser214/total ratio (RNF12 phospho-Ser214) | RNF12 SR-motif phosphorylation (phos-tag) (RNF12 SR-motif) | other results
CN1CCN(C(=O)C(C)(C)c2ccc(C(=O)Nc3cn4cc(-c5ccncc5)ccc4n3)cc2)CC1 [CLK-IN-T3] | little impact | minor effect | Foxp1 exon 16b-exon 16 inclusion ([1]; 1 μM): promotes exon 16b inclusion while suppressing inclusion of exon 16; SRSF phosphorylation [2]: widespread, robust inhibition
COc1ccc2c(C)nc(Nc3nc(C)c(C)c(=O)[nH]3)nc2c1 [Madrasin] |  |  | Foxp1 exon 16b-exon 16 inclusion ([1]; 10 μM): promotes inclusion of exon 16b over exon 16
O=C1NC(=NCc2cccs2)S/C1=C\c1ccc2ncccc2c1 [RO-3306] | some effect | little impact | 
O=C(Nc1cc(C(F)(F)F)ccc1N1CCN(Cc2ccccn2)CC1)c1ccc(-c2ccncc2)o1 [SPHINX31] |  | minor effect | 
O=C(Nc1cc(C(F)(F)F)ccc1N1CCCCC1)c1ccncc1 [SRPIN340] |  |  | IC50 (SRPK1): 4.7 µM
CN1CC[C@H](c2c(O)cc(O)c3c(=O)cc(-c4ccccc4Cl)oc23)[C@H](O)C1 [flavopiridol] | some effect | little impact | 
CCC(=C/[C@H](C)C/C=C/C(C)=C/[C@@H](C)C(=O)[C@@H](C)[C@H](O)[C@@H](C)C/C(C)=C/C(=O)O)/C=C/[C@@H]1OC(=O)C=C[C@@H]1C [leptomycin B] |  |  | RNF12 4xSA localization (RNF12 4xSA-KI mESCs): primarily nuclear; nucleus/cytosol ratio of RNF12 4xSA (fluorescence intensity, mean) (RNF12 4xSA-KI mESCs): 4.08
